According to US8445449B2, “Method and peptide for regulating cellular activity” (The United States of America, as represented by the …, priority 2004, dated 2013):
Where two headings read alike, the source gives them in different places. Where no end group is shown, it is not given here.

Assays:
[1] = test system: bacterial-induced middle ear inflammation; details: 10 μM peptide without bacteria, five mice, 3 days

Sequence | effect on cell viability (cell viability) | effect on cell viability (cell viability; 10 μM) | effect of peptide alone on fluid area, cell number, tympanic membrane thickness vs PBS injected ear [1]
ITCVDVDLIYKRRRRRRRRR [Scrambled peptide, reference compound] | no effect on cell viability | – | –
DIVKLTVYDCIRRRRRRRRR [peptide P13] | – | no effect on cell viability | no differences
